# Laboratory results published in publication PMC4628094, “In Vitro Assessment of Uptake and Lysosomal Sequestration of Respiratory Drugs in Alveolar Macrophage Cell Line NR8383” (Pharmaceutical Research, 2015).
# Where two headings read alike, the source gives them in different places.
# Assays:
# [1] = system: Lung tissue slices from male Wistar rats; set-up: method as in ref (9) (a number printed in a supplementary file, which may have a reference list of its own: not looked up in the article's list); conditions: NH4Cl 20 mM, drug 5 µM, 60 min, ref (9); cited from earlier work
# [2] = system: Liver tissue slices from male Wistar rats; set-up: method as in ref (8) (a number printed in a supplementary file, which may have a reference list of its own: not looked up in the article's list); conditions: NH4Cl 20 mM, drug 5 µM, 60 min, ref (8); cited from earlier work
# [3] = system: Brain slices from male Wistar rats; set-up: method as in ref (10) (a number printed in a supplementary file, which may have a reference list of its own: not looked up in the article's list); conditions: drug 5 µM, 60 min, ref (10), cited from earlier work
# [4] = system: Liver tissue slices from male Wistar rats; set-up: method as in ref (9) (a number printed in a supplementary file, which may have a reference list of its own: not looked up in the article's list); conditions: NH4Cl 20 mM, drug 5 µM, 60 min, ref (9); cited from earlier work
# [5] = system: Liver tissue slices from male Wistar rats; set-up: method as in ref (14) (a number printed in a supplementary file, which may have a reference list of its own: not looked up in the article's list); conditions: monensin 10 µM, drug 5 µM, 60 min, ref (14); cited from earlier work
# [6] = system: Lung tissue slices from male Wistar rats; set-up: method as in ref (5) (a number printed in a supplementary file, which may have a reference list of its own: not looked up in the article's list); conditions: NH4Cl 20 mM, drug 5 µM, 60 min, ref (5); cited from earlier work
# [7] = system: Lung tissue slices from male Wistar rats; set-up: method as in ref (8) (a number printed in a supplementary file, which may have a reference list of its own: not looked up in the article's list); conditions: NH4Cl 20 mM, drug 5 µM, 60 min, ref (8); cited from earlier work
# [8] = system: Lung tissue slices from male Wistar rats; set-up: method as in ref (14) (a number printed in a supplementary file, which may have a reference list of its own: not looked up in the article's list); conditions: monensin 10 µM, drug 5 µM, 60 min, ref (14); cited from earlier work
# [9] = system: Liver tissue slices from male Wistar rats; set-up: method as in ref (5) (a number printed in a supplementary file, which may have a reference list of its own: not looked up in the article's list); conditions: NH4Cl 20 mM, drug 5 µM, 60 min, ref (5); cited from earlier work
# [10] = system: Lung tissue slices from male Wistar rats; set-up: method as in ref (7) (a number printed in a supplementary file, which may have a reference list of its own: not looked up in the article's list); conditions: NH4Cl 3 mg/min/kg (i.v. infusion), drug 3.2 mg/kg (i.v. injection), 360 min, ref (7); cited from earlier work
# [11] = system: Liver tissue slices from male Wistar rats; set-up: method as in ref (7) (a number printed in a supplementary file, which may have a reference list of its own: not looked up in the article's list); conditions: NH4Cl 3 mg/min/kg (i.v. infusion), drug 3.2 mg/kg (i.v. injection), 360 min, ref (7); cited from earlier work
# [12] = system: Lung granule fraction containing lysosomes from male Wistar rats; set-up: method as in ref (6) (a number printed in a supplementary file, which may have a reference list of its own: not looked up in the article's list); conditions: NH4Cl 10 mM, drug 1 µM, 10 min; ref (6); cited from earlier work
# [13] = system: Liver tissue slices from male Sprague-Dawley rats; set-up: method as in ref (3) (a number printed in a supplementary file, which may have a reference list of its own: not looked up in the article's list); conditions: desipramine 5 µM, chloroquine 10 µM, 60 min, ref (3), cited from earlier work
# [14] = system: Lung tissue slices from male Sprague-Dawley rats; conditions: desipramine, diazepam 5 µM, chloroquine, thiopental 10 µM, 60 min, ref (3), cited from earlier work
# [15] = system: Hepatocytes isolated from male Wistar rats; conditions: NH4Cl 10 mM, 15 min, ref (2), cited from earlier work
# NR8383 cells [16] = conditions: NR8383, 5 μM drug, 5 min
# Procedure: (§1) The extent of accumulation of drugs in lysosomes was assessed using the same uptake methodology, as described above in the absence and presence of NH4Cl and ionophores, monensin and nigericin. […] In addition, a range of incubation conditions was explored, including pre-incubation and co-incubation alone and combined together. Once the conditions were optimised, further experiments were performed with 20 mM NH4Cl co-incubated with investigated drugs. […] For incubations with monensin and nigericin, all drugs were prepared at 5 μM concentration and the incubations were carried out for 5 min (single time point). Following the treatment of the cell monolayers with drug alone or drug with the agents mentioned, incubations were stopped by washing of the cells with ice-cold DPBS as described above, followed by cell lysis in deionised water. All incubations were carried out in duplicate and experiments were performed for three separate occasions. The removed incubation media were retained for the measurement of drug concentrations and subsequent determination of Kp for each compound. Analysis of samples in LC-MS/MS was performed after cells were kept at −20°C overnight.
# (§2) Kp and CLuptake were determined as described above for each drug both under control condition and in the presence of a chemical agent affecting the pH gradient between cytosol and lysosomes. The reduction in Kp and CLuptake of each drug in the presence of the chemical agents was expressed as a percentage relative to control and used as an indicator of the extent of lysosomal sequestration. A 50% reduction in both parameters was set as a cut-off for lysosomal accumulation, while also taking into account the physicochemical properties of the compounds (Table I) and the uncertainty associated with the experimental data.
# (§3) The in vitro parameters were calculated on at least three separate occasions and the mean data were reported. When assessing the extent of lysosomal sequestration, the control and chemical agent treated cells were compared using the two-tailed, paired t-test in order to determine statistically significant difference between the two conditions. Values were reported as significant when p < 0.05.
# NR8383 cells [17] = assay: Uptake kinetics of clarithromycin in NR8383, two-step method; type: in vitro ADME, rat; conditions: in the presence of NH4Cl
# Procedure: (§4) The drug uptake in NR8383 corresponding to these conditions was described by total uptake (CLuptake) and passive diffusion ([…] ) clearance terms, respectively. […] For 37°C experiments, incubation was carried out on a dry heater block maintained at 37°C throughout the experiment ([…] -block DB-3, Tecam, Princeton, NJ) and for 4°C experiments, the procedure was carried out on ice. […] The back-diffusion of the drug from the cell into the medium was considered to be negligible under these conditions. The removed incubation media were retained for the measurement of drug medium concentrations and subsequent determination of Kp for each drug. […] Experiments were performed on three or more separate occasions for each drug investigated. […] The amount of protein per well was measured using a BSA calibration curve and absorbances read at 562 nm (S22 Boeco UV-Visible Spectrophotometer, Hamburg, Germany). […] The extent of accumulation of drugs in lysosomes was assessed using the same uptake methodology, as described above in the absence and presence of NH4Cl and ionophores, monensin and nigericin. […] In addition, a range of incubation conditions was explored, including pre-incubation and co-incubation alone and combined together. […] Following the treatment of the cell monolayers with drug alone or drug with the agents mentioned, incubations were stopped by washing of the cells with ice-cold DPBS as described above, followed by cell lysis in deionised water. All incubations were carried out in duplicate and experiments were performed for three separate occasions. The removed incubation media were retained for the measurement of drug concentrations and subsequent determination of Kp for each compound. Analysis of samples in LC-MS/MS was performed after cells were kept at -20°C overnight. […] When estimating the uptake kinetic parameters in the presence of NH4Cl, […] estimated at single substrate concentration was used a constant in the equation. […] The latter was determined from the slope of the linear regression of the unbound concentration extrapolated at time 0 vs. the nominal incubation concentration plot.
# [18] = as above; type: in vitro ADME, rat; conditions: rat, incubation media of NR8383 cells; NR8383 incubation media; read-out: fraction unbound in the media (fumed)
# Procedure: as §4
# NR8383 cells [19] = assay: Drug uptake in NR8383 at 37 and 4°C (CLuptake, CLdiff, Kp)
# Procedure: The studies were carried out in a 24-well plate format and the in vitro conditions were optimised in terms of cell detachment method from culture flasks, coating type of 24-well plates, seeding density, culturing time and drug incubation time points. Briefly, for cell detachment, gentle scraping versus Mg^2+-Ca^2+ free DPBS treatment of cells in culture flasks were tested. Considering the semi-adherent nature of AMs, cell seeding into non-coated, collagen-I and poly-D-lysine coated 24-well plates was investigated for cell attachment, distribution in the wells and detachment following DPBS washes during the uptake experiments. In addition, seeding densities of 0.36 and 0.72 × 10^6 cells per well were assessed with respect to cell attachment, confluency following culture (plating efficiency) and potential cell detachment following DPBS washes. Culturing time ranging from 4 to 24 h was investigated for optimal cell attachment before carrying out uptake experiments. Uptake rate and Kp data were normalised by cell number determined indirectly by measuring the amount of protein in samples by bicinchoninic acid (BCA) protein assay (Thermo Scientific, Loughborough, UK). Following the optimisation, detachment of NR8383 from cell culture flasks was performed by gentle scraping prior to cell counting and seeding into collagen-I coated 24-well plates at 0.5 × 10^6 cells per well. Cells were cultured for 16 h at 37°C, 5% CO2 (CO2 incubator, MCO-17AIC, Sanyo Biomedical, Loughborough, UK) before uptake studies performed over 1 to 10 min period.
# The drug uptake in NR8383 corresponding to these conditions was described by total uptake (CLuptake) and passive diffusion (CLdiff) clearance terms, respectively. […] Substrate solutions were prepared by dilution of the stock solutions in DPBS resulting in final DMSO content < 1%. Uptake studies were performed in the presence of 1 mM ABT, a nonspecific P450 inhibitor, in order to avoid any potential impact of phase I metabolism. […] Following microscopy, the CGM was removed, cells were washed twice with 800 μL of either pre-warmed or ice-cold DPBS (for experiments at 37 and 4°C, respectively) and pre-incubation with 500 μL of pre-warmed or ice-cold ABT/DPBS was carried out for 20 min. Where ABT pre-treatment was not necessary, cell monolayers were treated with 500 μL of DPBS only. Once pre-incubation buffer was removed from the cell monolayers, incubations were started by addition of 400 μL of substrate solution (pre-warmed or ice-cold) in each well. Each substrate was incubated with the cells for 1, 2, 5 and 10 min and each time point at 37°C and 4°C. For 37°C experiments, incubation was carried out on a dry heater block maintained at 37°C throughout the experiment (Tecam Dri-block DB-3, Tecam, Princeton, NJ) and for 4°C experiments, the procedure was carried out on ice. Incubation with substrate was stopped by removal of the media with drug solution and washing the monolayers three times with 800 μL ice-cold DPBS. The back-diffusion of the drug from the cell into the medium was considered to be negligible under these conditions. The removed incubation media were retained for the measurement of drug medium concentrations and subsequent determination of Kp for each drug. The cells were lysed by addition of 200 μL ice-cold deionised water; cell lysates were kept at −20°C overnight and then processed further for LC-MS/MS analysis. Experiments were performed on three or more separate occasions for each drug investigated. […] The amount of protein per well was measured using a BSA calibration curve and absorbances read at 562 nm (S22 Boeco UV-Visible Spectrophotometer, Hamburg, Germany).
# NR8383 cells [20] = system: NR8383 cells
# Procedure: Lactate dehydrogenase (LDH) assay kit (Sigma-Aldrich, Dorset, UK) was used to measure the cytotoxicity of the chemical agents used to assess the extent of lysosomal sequestration relative to untreated cells. In addition, the cytotoxicity was assessed at high drug concentrations (50 and 100 μM) in cases where uptake was investigated over a substrate concentration range. The viability of the untreated cells and the effect of the individual drugs and chemical agents, as well as the effect of their combined use were assessed. […] For the assessment of the individual chemical agents, same concentrations were used as in the lysosomal sequestration studies. The cytotoxicity in above samples was measured on three separate occasions. The LDH activity of the experimental samples was compared against the 100% activity of the LDH positive control included in the assay kit. […] Data acquisition was performed using Magellan software (version 7.1, Tecan Group Ltd., Austria).
# NR8383 cells [21] = assay: Lysosomal sequestration studies in NR8383 with NH4Cl, monensin and nigericin; conditions: for Reduction in uptake clearance (%): preliminary optimisation; for % Reduction in Kp by NH4Cl: NH4Cl 20 mM
# Procedure: as §1, §2, §3
# [22] = system: NR8383 cell line and granule fraction (containing lysosomes); conditions: ref ([12]), cited from earlier work
# [23] = Physicochemical properties, experimental literature values (Table I); conditions: classification in Table I
# [24] = experimental value; ref ([21])-([30]) per drug, Table I; cited from earlier work
# NR8383 cells [25] = assay: LysoTracker Red (LTR) confocal assessment of lysosomal sequestration in NR8383; type: cell-based, rat; conditions: drug 5 μM co-incubated with 200 nM LTR, 1 h
# NR8383 cells [26] = assay: Accumulation (Kp) in NR8383 over a concentration range, two-site binding model; conditions: apparent saturable uptake equilibrium constant, two-site binding model, control
# Procedure: The drug uptake in NR8383 corresponding to these conditions was described by total uptake (CLuptake) and passive diffusion (CLdiff) clearance terms, respectively. […] Substrate solutions were prepared by dilution of the stock solutions in DPBS resulting in final DMSO content < 1%. Uptake studies were performed in the presence of 1 mM ABT, a nonspecific P450 inhibitor, in order to avoid any potential impact of phase I metabolism. […] Following microscopy, the CGM was removed, cells were washed twice with 800 μL of either pre-warmed or ice-cold DPBS (for experiments at 37 and 4°C, respectively) and pre-incubation with 500 μL of pre-warmed or ice-cold ABT/DPBS was carried out for 20 min. Where ABT pre-treatment was not necessary, cell monolayers were treated with 500 μL of DPBS only. […] The amount of protein per well was measured using a BSA calibration curve and absorbances read at 562 nm (S22 Boeco UV-Visible Spectrophotometer, Hamburg, Germany).
# Kp was determined by Eq. 1 as reported previously ([36],[37]);1 Kp=Ccell/Cmedium where Ccell and Cmedium represent concentration of the drug in the cell and medium, respectively. […] Cell volume was calculated by multiplying the reported NR8383 volume of 4.2 μL/mg protein ([38]) with the amount of protein measured experimentally (0.25 ± 0.06 mg/10^6 cells). […]
smiles,measurement,setting,value
CN(C)CCC=C1c2ccccc2CCc2ccccc21 [Amitriptyline],Reduction in total uptake (%),[1],47%
same,Reduction in total uptake (%),[2],68%
same,Reduction in total uptake (%),[3]; NH4Cl 20 mM,32%
same,Reduction of total uptake (%),[3]; monensin 10 µM,31%
same,Reduction in total uptake (%),[4],67%
same,Reduction of total uptake (%),[5],48%
same,Reduction in total uptake (%),[6],63%
same,Reduction in total uptake (%),[7],56%
same,Reduction of total uptake (%),[8],70%
same,Reduction in total uptake (%),[9],40%
OC(CCN1CCCCC1)(c1ccccc1)C1CC2C=CC1C2 (stereo not drawn) [Biperiden],Reduction in total uptake (%),[10],77%
same,Reduction in total uptake (%),[11],2.5%
same,Reduction in total uptake (%),[12],56%
CCN(CC)CCCC(C)Nc1ccnc2cc(Cl)ccc12 (stereo not drawn) [Chloroquine],Reduction in total uptake (%),[13]; NH4Cl 20 mM,53%
same,Reduction of total uptake (%),[13]; monensin 10 µM,44%
same,Reduction in total uptake (%),[14]; NH4Cl 20 mM,66%
same,Reduction of total uptake (%),[14]; monensin 10 µM,73%
same,Reduction in total uptake (%),[15]; drug 10 µM,93%
same,Reduction in total uptake (%),[15]; drug 100 µM,77%
same,Reduction in total uptake (%),[12],87%
CC[C@H]1OC(=O)[C@H](C)[C@@H](O[C@H]2C[C@@](C)(OC)[C@@H](O)[C@H](C)O2)[C@H](C)[C@@H](O[C@@H]2O[C@H](C)C[C@H](N(C)C)[C@H]2O)[C@](C)(OC)C[C@@H](C)C(=O)[C@H](C)[C@@H](O)[C@]1(C)O [Clarithromycin],% Reduction in Kp by Monensin,NR8383 cells [16]; monensin 5 μM,77%
same,% Reduction in Kp by Nigericin,NR8383 cells [16]; nigericin 10 μM,82%
same,Km,NR8383 cells [17]; active uptake,28.5 µM
same,Vmax,NR8383 cells [17]; active uptake,12.4 pmol/min/10^6 cells
same,total CLuptake from kinetic parameters,NR8383 cells [17],0.46 μL/min/10^6 cells
same,fraction unbound,[18],0.93 ± 0.03
same,Contribution of passive (%),"NR8383 cells [19]; NR8383, 5 μM, CLdiff relative to CLuptake",0.53%
same,mean uptake of 5 μM clarithromycin across experiments,"NR8383 cells [19]; control of individual experiments, n = 59",5.50 ± 2.96 μl/min/10^6 cells
same,cytotoxicity (LDH) compared to positive control,NR8383 cells [20]; drug 50 μM,< 3%
same,cytotoxicity (LDH) compared to positive control,NR8383 cells [20]; drug 100 μM,10%
same,Reduction in uptake clearance (%),"NR8383 cells [21]; 5 µM drug, + 10 mM NH4Cl",85%
same,Reduction in uptake clearance (%),"NR8383 cells [21]; 5 µM drug, + 20 mM NH4Cl",93%
same,Reduction in uptake clearance (%),"NR8383 cells [21]; 5 µM drug, + 50 mM NH4Cl",94%
same,Reduction in uptake clearance (%),"NR8383 cells [21]; 20 µM drug, + 10 mM NH4Cl",85%
same,Reduction in uptake clearance (%),"NR8383 cells [21]; 20 µM drug, + 20 mM NH4Cl",89%
same,Reduction in uptake clearance (%),"NR8383 cells [21]; 20 µM drug, + 50 mM NH4Cl",93%
same,% Reduction in Kp by NH4Cl,"NR8383 cells [21]; NR8383, 5 μM drug",84 ± 6.6 %
same,% Reduction in Kp by Monensin,"NR8383 cells [21]; NR8383, 5 μM drug, monensin 5 μM, 5 min",77 ± 8.5 %
same,% Reduction in Kp by Nigericin,"NR8383 cells [21]; NR8383, 5 μM drug, nigericin 10 μM, 5 min",82 ± 9.6 %
same,% Reduction in Kp by NH4Cl,"NR8383 cells [21]; NR8383, 20 µM drug",75 ± 8.3 %
same,% Reduction in CLuptake by Monensin (5 µM),"NR8383 cells [21]; NR8383, at 5 µM drug",78 ± 8.0 %
same,% Reduction in CLuptake by NH4Cl (20 mM),"NR8383 cells [21]; NR8383, at 5 µM drug",85 ± 7.5 %
same,% Reduction in CLuptake by Nigericin (10 µM),"NR8383 cells [21]; NR8383, at 5 µM drug",84 ± 9.2 %
same,% Reduction in CLuptake by NH4Cl (20 mM),"NR8383 cells [21]; NR8383, at 20 µM drug",78 ± 9.0 %
same,reduction of Kp and CLuptake in the presence of NH4Cl and monensin/nigericin,"NR8383 cells [21]; NR8383, summary in Abstract",59–85%
same,reduction in Kp in the presence of chemical agents (summary in Discussion),"NR8383 cells [21]; NR8383, NH4Cl, monensin, nigericin",≥ 65%
same,Kp,"[22]; NR8383, 10 min, 37°C, initial concentration 50 μM",~ 16
same,reduction in Kp at 4°C compared to 37°C,[22]; NR8383,90%
same,reduction of amount of drug in the cells by NH4Cl,[22]; NR8383,approximately half
same,reduction of fraction of drug in the granules compartment (containing the lysosomes) by NH4Cl,[22]; NR8383,75%
same,Acid–base Property,[23],Base
same,LogD7.4,[24],1.57
same,reduction in LTR accumulation,NR8383 cells [25],86%
same,KU1,NR8383 cells [26],1.18 ± 1.45 µM
